BigSolDB 2.1

CO/N=C(\C(=O)N[C@@H]1C(=O)N2C(C(=O)O)=C(CSc3nnnn3C)CS[C@H]12)c1csc(N)n1.CO/N=C(\C(=O)N[C@@H]1C(=O)N2C(C(=O)O)=C(CSc3nnnn3C)CS[C@H]12)c1csc(N)n1.Cl
solubility (mole fraction)
Details | 283.15 K | 288.15 K | 293.15 K | 298.15 K | 303.15 K | 308.15 K | 313.15 K
in ethanol | 2.61e-05 | 2.83e-05 | 3.03e-05 | 3.17e-05 | 3.8e-05 | 4.01e-05 | 4.68e-05
in methanol | 0.000186 | 0.000196 | 0.000213 | 0.000235 | 0.000253 | 0.000275 | 0.000303
in water | 3.26e-05 | 3.59e-05 | 4.23e-05 | 4.76e-05 | 5.29e-05 | 5.88e-05 | 6.65e-05
